Measurements as given in patent US20140179681A1, “METHODS AND COMPOSITIONS OF TARGETED DRUG DEVELOPMENT” (priority 2010, published 2014).
Like-named read-outs stand apart in the source and are kept apart here.

Test system: MDBK line
Test: MTT Cell Proliferation Assay, MDBK cells
Format: cell-based, bovine
Conditions: for IC50: Bos taurus, MDBK, Table 11, second of x/y(ratio): MDBK
Procedure, shortened: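 Viability was measured by mitochondrial MTT reduction after cells were exposed to compound for 3 days in reduced-serum medium. Inhibition was calculated per plate against 0.5% DMSO controls.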

CCc1cc2c(CN3CCN(Cc4ccc5c(c4)OCO5)CC3)cc(=O)oc2cc1O [AD4-1734]
IC50 (unit inferred, read-out: MTT Follow-up (second value)): 40.2 µM | IC50 (unit not printed (doses in μM), read-out: MTT Screen (second value)): 42.5 µM | activity in MDBK cells (standard at 23.5 μM final concentration): 0 | activity in MDBK cells (standard at 31.125 μM final concentration): less than 50%
